Assays:
5HT-transporter = biological target: T1, 5HT-transporter (Homo sapiens, UniProt P31645); experiment: Binding experiment for the 5HT-transporter ([3H]paroxetine, human platelet membranes); settings: [3H]paroxetine 0.5 nM, 60 min at 25° C.; for IC50: read-out: h-5HTT pIC50 (converted)
T1 construct: Human platelet membranes (Oceanix Biosciences Corporation, Hanover, Md., USA) were thawed; tissue Oceanix Biosciences Corporation, Hanover, Md., USA; host or cells: human platelet membranes
Method in brief: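 Competition binding of [3H]paroxetine to human platelet membranes in Tris-HCl 50 mM with 120 mM NaCl and 5 mM KCl; bound radioligand separated by GF/B filtration and counted.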

[1] = biological target: T2, human adrenergic-α2C receptor (Homo sapiens, UniProt P18825); experiment: Radioligand binding experiment for hα2C-adrenoceptor ([3H]raulwolscine); settings: [3H]raulwolscine 1 nM, 60 minutes at 25° C.; for IC50: read-out: h-α2C pIC50 (converted)
T2 construct: expressed in transfected cells; host or cells: CHO cells, stably transfected; membrane preparation
T2 sequence (P18825 1-462): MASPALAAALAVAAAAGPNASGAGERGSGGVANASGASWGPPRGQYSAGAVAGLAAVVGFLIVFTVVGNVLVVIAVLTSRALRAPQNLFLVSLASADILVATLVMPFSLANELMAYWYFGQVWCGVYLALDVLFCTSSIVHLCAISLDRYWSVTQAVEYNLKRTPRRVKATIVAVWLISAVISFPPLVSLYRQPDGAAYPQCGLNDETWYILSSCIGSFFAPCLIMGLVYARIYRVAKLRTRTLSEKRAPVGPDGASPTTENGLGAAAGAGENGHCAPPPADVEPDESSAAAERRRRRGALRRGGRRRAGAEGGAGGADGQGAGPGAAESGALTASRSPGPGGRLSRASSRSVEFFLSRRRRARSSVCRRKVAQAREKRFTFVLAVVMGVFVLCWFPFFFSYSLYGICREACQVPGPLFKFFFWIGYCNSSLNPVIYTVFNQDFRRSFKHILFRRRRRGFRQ
Method in brief: (§1)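 CHO membranes expressing human α2A or α2C receptors were incubated with 1 nM [^3H]raulwolscine for 60 min at 25° C in glycylglycine 25 mM, pH 8.0, then filtered. Nonspecific binding was defined with 1 μM oxymetazoline for α2A and 1 μM spiroxatrine for α2C. pIC50 came from sigmoidal competition curves.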

[2] = biological target: T3, human adrenergic-α2A receptor (Homo sapiens, UniProt P08913); experiment: Radioligand binding experiment for hα2A-adrenergic receptor ([3H]raulwolscine); settings: [3H]raulwolscine 1 nM, 60 minutes at 25° C.; for IC50: read-out: h-α2A pIC50 (converted)
T3 construct: expressed in transfected cells; host or cells: CHO cells, stably transfected; membrane preparation
T3 sequence (P08913 1-465): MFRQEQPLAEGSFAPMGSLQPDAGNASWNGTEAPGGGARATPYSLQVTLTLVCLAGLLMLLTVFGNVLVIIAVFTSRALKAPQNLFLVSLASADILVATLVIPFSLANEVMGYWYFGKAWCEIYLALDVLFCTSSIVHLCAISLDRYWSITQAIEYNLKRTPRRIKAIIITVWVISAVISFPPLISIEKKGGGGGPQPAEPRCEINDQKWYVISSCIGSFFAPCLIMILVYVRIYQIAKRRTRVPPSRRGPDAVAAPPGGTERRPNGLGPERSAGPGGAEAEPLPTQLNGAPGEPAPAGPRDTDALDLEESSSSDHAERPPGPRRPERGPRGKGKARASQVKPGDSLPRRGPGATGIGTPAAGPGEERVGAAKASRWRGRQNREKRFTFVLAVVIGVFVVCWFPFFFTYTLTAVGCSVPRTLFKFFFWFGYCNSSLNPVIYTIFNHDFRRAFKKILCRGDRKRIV
Method in brief: as §1

T1 sequence (P31645 whole entry): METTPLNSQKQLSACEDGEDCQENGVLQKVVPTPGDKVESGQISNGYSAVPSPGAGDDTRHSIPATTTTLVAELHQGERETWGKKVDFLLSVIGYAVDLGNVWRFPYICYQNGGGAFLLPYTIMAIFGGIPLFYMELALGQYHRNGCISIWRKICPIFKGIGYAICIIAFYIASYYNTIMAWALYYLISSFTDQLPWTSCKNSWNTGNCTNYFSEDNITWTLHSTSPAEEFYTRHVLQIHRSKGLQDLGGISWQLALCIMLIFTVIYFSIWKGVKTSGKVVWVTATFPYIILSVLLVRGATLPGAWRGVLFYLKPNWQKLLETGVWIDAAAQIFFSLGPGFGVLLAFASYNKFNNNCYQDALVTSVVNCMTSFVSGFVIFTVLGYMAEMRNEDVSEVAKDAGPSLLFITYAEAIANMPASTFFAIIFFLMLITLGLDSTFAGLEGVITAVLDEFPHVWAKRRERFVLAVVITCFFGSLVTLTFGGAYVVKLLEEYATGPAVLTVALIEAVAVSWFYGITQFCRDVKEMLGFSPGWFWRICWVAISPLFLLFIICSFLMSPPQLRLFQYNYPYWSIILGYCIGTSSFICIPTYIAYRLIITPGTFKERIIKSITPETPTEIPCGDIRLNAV

SMILES	IC50 (5HT-transporter)	IC50 [1]	IC50 [2]	h-5HTT pIC50 (5HT-transporter)	h-α2C pIC50 [1]	h-α2A pIC50 [2]
COc1ccc(Cn2c(-c3cccc(CN4CCN(C)CC4)c3)c(Cl)nc(NC3CCN(Cc4ccc5ccccc5c4)CC3)c2=O)cc1 [8-14]	50.1 nM	126 nM	501 nM			
O=C1c2ccccc2C(=O)N1CCCn1ccnc(N2CCN(Cc3ccc4ccccc4c3)CC2)c1=O [9-01]	31.6 nM	79.4 nM	631 nM			
O=C(CCN(c1nccn(CCC(=O)c2ccccc2)c1=O)C1CCN(Cc2ccc3ccccc3c2)CC1)c1ccccc1 [9-03]	39.8 nM	39.8 nM	251 nM			
O=c1c(NC2CCN(Cc3ccc4ncccc4c3)CC2)nccn1CCCOCc1ccccc1 [9-06]	39.8 nM	316 nM	1260 nM			
O=c1c(NC2CCN(Cc3ccc4ncccc4c3)CC2)nccn1CCCOc1ccccc1 [9-12]	794 nM	63.1 nM	501 nM			
O=c1[nH]ccnc1NC1CCN(Cc2ccc3ncccc3c2)CC1 [9-13]	> 10000 nM	398 nM	3160 nM			
O=C(CCN(c1nccn(CCC(=O)c2ccccc2)c1=O)C1CCN(Cc2cnc3ccccc3c2)CC1)c1ccccc1 [9-20]	398 nM	398 nM	3160 nM			
CCOC(=O)CCCCn1ccnc(NC2CCN(Cc3cnc4ccccc4c3)CC2)c1=O [9-21]	2000 nM	200 nM	1260 nM			
NCc1ccc(Cn2ccnc(N3CCN(Cc4cccc5ccccc45)CC3)c2=O)cc1 [9-23]	1260 nM	1000 nM	398 nM			
CN(C)C(=O)Cn1ccnc(N2CCN(Cc3cccc4ccccc34)CC2)c1=O [9-24]	> 10000 nM	398 nM	5010 nM			
O=C1c2ccccc2C(=O)N1CCCn1ccnc(NC2CCN(Cc3cnc4ccccc4c3)CC2)c1=O [9-27]	631 nM	794 nM	> 10000 nM			
O=C(CCN(c1nccn(CCC(=O)c2ccccc2)c1=O)C1CCN(Cc2ccnc3ccccc23)CC1)c1ccccc1 [9-28]	200 nM	631 nM	> 10000 nM			
O=c1c(N2CCN(Cc3ccc4ccccc4n3)CC2)nccn1Cc1ccccc1 [9-29]	> 10000 nM	501 nM	631 nM			

Continued, values first:

IC50 (5HT-transporter)	IC50 [1]	IC50 [2]	h-5HTT pIC50 (5HT-transporter)	h-α2C pIC50 [1]	h-α2A pIC50 [2]	SMILES
			7.3	7.5	6.6	O=C(O)C(F)(F)F.O=C1c2ccccc2C(=O)N1CCCn1ccnc(NCCN2CCN(Cc3ccc4ccccc4c3)CC2)c1=O [9-02]
25.1 nM	794 nM	1580 nM				O=C(CCn1ccnc(NC2CCN(Cc3ccc4ncccc4c3)CC2)c1=O)c1ccccc1 [9-05]
50.1 nM	63.1 nM	1580 nM				O=C1c2ccccc2C(=O)N1CCCn1ccnc(NC2CCN(Cc3ccc4ncccc4c3)CC2)c1=O [9-07]
126 nM	50.1 nM	316 nM				O=C(CCN(c1nccn(CCC(=O)c2ccccc2)c1=O)C1CCN(Cc2ccc3ccccc3n2)CC1)c1ccccc1 [9-09]
3980 nM	126 nM	631 nM				CCOC(=O)CCCCn1ccnc(NC2CCN(Cc3ccc4ccccc4n3)CC2)c1=O [9-14]
631 nM	158 nM	631 nM				O=c1c(NC2CCN(Cc3ccc4ccccc4n3)CC2)nccn1CCOc1ccccc1 [9-15]
1000 nM	63.1 nM	2000 nM				O=C1c2ccccc2C(=O)N1CC#CCn1ccnc(NC2CCN(Cc3ccc4ccccc4n3)CC2)c1=O [9-18]
1260 nM	398 nM	631 nM				CC(C)(C)OC(=O)NCc1ccc(Cn2ccnc(N3CCN(Cc4cccc5ccccc45)CC3)c2=O)cc1 [9-25]
2510 nM	1000 nM	501 nM				O=c1c(N2CCN(Cc3cccc4ccccc34)CC2)nccn1Cc1ccccc1 [9-26]

Source: patent US20080269251A1, “Substituted Pyrazinone Derivatives as Alpha2C-Adrenoreceptor Antagonists” (priority 2005, published 2008)
